{
  "source": "patent US12359230B2",
  "about": "“Microbial oils with high levels of omega-3 fatty acids” (MARA Renewables Corporation, priority 2020, dated 2025)",
  "type_in_all_cases": "cell-based",
  "key": {"[1]": {"test_system": "Aurantiochytrium sp. (G3)", "test": "Cerulenin effect on product concentration and yield per carbon consumed", "from_the_text": "To assess the impact of the herein described methods for PUFA enhancement strategy, the yields of product (i.e. TFA, DHA or DPA) relative to the amount of carbon assimilated by the G3 cells was investigated. In FIG. 5, the total amount of product synthesized (categorized as total fatty acids (TFA), saturated fatty acids (SFA) or DHA) is depicted. In the presence of fatty acid synthesis inhibitors, dosed at certain frequency and concentration, both TFA and DHA concentration increased while SFA concentration decreased. For example, under the condition where cerulenin was dosed 1 μM each time for 6 times at 12 hour intervals, TFA and DHA increased by 15% and 71%, respectively, when compared to the results of the control experiment (FIG. 5)."}, "[2]": {"test_system": "Aurantiochytrium sp. (G3)", "test": "Cerulenin dosing regimen: fatty acid profile of Aurantiochytrium sp. (G3)", "conditions": "for DHA: DPA / Fatty Acid Content, TFA: 20° C.", "experimental": "To investigate the effect of prolonged, repeated exposure to cerulenin, doses were spread equally across 3 or 6 times during the experiment. In each case, the total amount added was equivalent to the corresponding treatments that were added entirely at 24 hours. All additions began at 24 hours after inoculation. In FIGS. 3 and 4, a clear trend of increasing DHA and DPA was visible with both increasing cerulenin concentration and by dosing the cerulenin in multiple equivalent pulses."}, "[3]": {"test_system": "Aurantiochytrium sp. (G3)", "test": "Cerulenin concentration: fatty acid profile of Aurantiochytrium sp. (G3)", "conditions": "20° C.", "experimental": "To determine the optimum concentration of cerulenin to provide the best results, a range of concentrations from 1 μM to 40 μM were tested. For consistency, all cerulenin additions were made at 24 hours after inoculation. […] (G3) in varying concentrations of cerulenin at 20° C."}, "[4]": {"test_system": "Aurantiochytrium sp. (G3)", "test": "Cerulenin dose timing: fatty acid profile of Aurantiochytrium sp. (G3)", "experimental": "To determine the ideal time for addition of the fatty acid synthase inhibitor cerulenin without excessive harm such as preventing cell growth, experiments were conducted by adding a set amount of cerulenin at various amounts of time after inoculation. In all experiments, the control experiment was performed with the same medium and growth conditions without the addition of FAS inhibitors."}, "[5]": {"conditions": "cerulenin 1 μM each time for 6 times at 12 hour intervals"}, "[6]": {"conditions": "3 μM cerulenin added entirely at 24 hours"}, "[7]": {"conditions": "6 μM cerulenin added entirely at 24 hours"}, "[8]": {"conditions": "9 μM cerulenin added entirely at 24 hours"}, "[9]": {"conditions": "25 μM cerulenin added entirely at 24 hours"}, "[10]": {"conditions": "3 × 1 μM cerulenin, interval 24 hours, starting at 24 hours after inoculation"}, "[11]": {"conditions": "3 × 2 μM cerulenin, interval 24 hours, starting at 24 hours after inoculation"}, "[12]": {"conditions": "3 × 3 μM cerulenin, interval 24 hours, starting at 24 hours after inoculation"}, "[13]": {"conditions": "3 × 8.3 μM cerulenin, interval 24 hours, starting at 24 hours after inoculation"}, "[14]": {"conditions": "6 × 0.5 μM cerulenin, interval 12 hours, starting at 24 hours after inoculation"}, "[15]": {"conditions": "6 × 1 μM cerulenin, interval 12 hours, starting at 24 hours after inoculation"}, "[16]": {"conditions": "6 × 2 μM cerulenin, interval 12 hours, starting at 24 hours after inoculation"}, "[17]": {"conditions": "6 × 3 μM cerulenin, interval 12 hours, starting at 24 hours after inoculation"}, "[18]": {"conditions": "6 × 4.17 μM cerulenin, interval 12 hours, starting at 24 hours after inoculation"}, "[19]": {"conditions": "1 μM cerulenin added at 24 hours after inoculation"}, "[20]": {"conditions": "2 μM cerulenin added at 24 hours after inoculation"}, "[21]": {"conditions": "3 μM cerulenin added at 24 hours after inoculation"}, "[22]": {"conditions": "6 μM cerulenin added at 24 hours after inoculation"}, "[23]": {"conditions": "9 μM cerulenin added at 24 hours after inoculation"}, "[24]": {"conditions": "25 μM cerulenin added at 24 hours after inoculation"}, "[25]": {"conditions": "40 μM cerulenin added at 24 hours after inoculation"}, "[26]": {"conditions": "25 μM cerulenin added 0 hr after inoculation, 20° C."}, "[27]": {"conditions": "25 μM cerulenin added 24 hr after inoculation, 20° C."}, "[28]": {"conditions": "25 μM cerulenin added 48 hr after inoculation, from 25° C. data"}, "[29]": {"conditions": "cerulenin added 24 hours after inoculation"}},
  "data": [
    {"molecule": "C/C=C/C/C=C/CCC(=O)[C@H]1O[C@H]1C(N)=O", "note": "[cerulenin]", "values": [
      {"measurement": "increase in DHA yield (gram product/gram carbon consumed) vs control", "setting": "[1]; 6×1 μM cerulenin", "value": 53, "unit": "%"},
      {"measurement": "reduction in SFA yield (gram product/gram carbon consumed) vs control", "setting": "[1]; 6×1 μM cerulenin", "value": 64, "unit": "%"},
      {"measurement": "DHA concentration increased vs control", "setting": "[1]; [5]", "value": 71, "unit": "%"},
      {"measurement": "TFA concentration increased vs control", "setting": "[1]; [5]", "value": 15, "unit": "%"},
      {"measurement": "DHA: DPA", "setting": "[2]; [6]", "value": 6.77},
      {"measurement": "Fatty Acid Content, TFA", "setting": "[2]; [6]", "value": "658.72 mg/g of dry biomass"},
      {"measurement": "DHA: DPA", "setting": "[2]; [7]", "value": 6.87},
      {"measurement": "Fatty Acid Content, TFA", "setting": "[2]; [7]", "value": "619.88 mg/g of dry biomass"},
      {"measurement": "DHA: DPA", "setting": "[2]; [8]", "value": 6.26},
      {"measurement": "Fatty Acid Content, TFA", "setting": "[2]; [8]", "value": "603.79 mg/g of dry biomass"},
      {"measurement": "DHA: DPA", "setting": "[2]; [9]", "value": 5.40},
      {"measurement": "Fatty Acid Content, TFA", "setting": "[2]; [9]", "value": "595.96 mg/g of dry biomass"},
      {"measurement": "DHA: DPA", "setting": "[2]; [10]", "value": 6.67},
      {"measurement": "Fatty Acid Content, TFA", "setting": "[2]; [10]", "value": "636.22 mg/g of dry biomass"},
      {"measurement": "DHA: DPA", "setting": "[2]; [11]", "value": 6.10},
      {"measurement": "Fatty Acid Content, TFA", "setting": "[2]; [11]", "value": "614.40 mg/g of dry biomass"},
      {"measurement": "DHA: DPA", "setting": "[2]; [12]", "value": 6.28},
      {"measurement": "Fatty Acid Content, TFA", "setting": "[2]; [12]", "value": "597.67 mg/g of dry biomass"},
      {"measurement": "DHA: DPA", "setting": "[2]; [13]", "value": 4.75},
      {"measurement": "Fatty Acid Content, TFA", "setting": "[2]; [13]", "value": "617.52 mg/g of dry biomass"},
      {"measurement": "DHA increase", "setting": "[2]; 6 equivalent doses of cerulenin, 12 μM in total", "value": 51.6, "unit": "%"},
      {"measurement": "DHA: DPA", "setting": "[2]; [14]", "value": 5.66},
      {"measurement": "Fatty Acid Content, TFA", "setting": "[2]; [14]", "value": "616.79 mg/g of dry biomass"},
      {"measurement": "DHA: DPA", "setting": "[2]; [15]", "value": 5.12},
      {"measurement": "Fatty Acid Content, TFA", "setting": "[2]; [15]", "value": "620.75 mg/g of dry biomass"},
      {"measurement": "DHA: DPA", "setting": "[2]; [16]", "value": 4.69},
      {"measurement": "Fatty Acid Content, TFA", "setting": "[2]; [16]", "value": "585.23 mg/g of dry biomass"},
      {"measurement": "DHA: DPA", "setting": "[2]; [17]", "value": 4.19},
      {"measurement": "Fatty Acid Content, TFA", "setting": "[2]; [17]", "value": "540.81 mg/g of dry biomass"},
      {"measurement": "DHA: DPA", "setting": "[2]; [18]", "value": 3.91},
      {"measurement": "Fatty Acid Content, TFA", "setting": "[2]; [18]", "value": "538.56 mg/g of dry biomass"},
      {"measurement": "DHA %", "setting": "[2]; flask experiment, multiple and intermittent dosing of cerulenin (12 μM total, 20° C., FIG. 7)", "value": 68.7, "unit": "%"},
      {"measurement": "maximal decrease in C14:0", "setting": "[2]; repeated cerulenin dosing", "value": 85.1, "unit": "%"},
      {"measurement": "maximal decrease in C16:0", "setting": "[2]; repeated cerulenin dosing", "value": 83.9, "unit": "%"},
      {"measurement": "impact on total fatty acids", "setting": "[2]; repeated dose addition of cerulenin", "value": "no negative impact"},
      {"measurement": "DHA: DPA", "setting": "[3]; [19]", "value": 8.73},
      {"measurement": "Fatty Acid Content, TFA", "setting": "[3]; [19]", "value": "580.28 mg/g of dry biomass"},
      {"measurement": "DHA: DPA", "setting": "[3]; [20]", "value": 8.50},
      {"measurement": "Fatty Acid Content, TFA", "setting": "[3]; [20]", "value": "580.90 mg/g of dry biomass"},
      {"measurement": "DHA: DPA", "setting": "[3]; [21]", "value": 6.77},
      {"measurement": "Fatty Acid Content, TFA", "setting": "[3]; [21]", "value": "658.72 mg/g of dry biomass"},
      {"measurement": "DHA: DPA", "setting": "[3]; [22]", "value": 6.87},
      {"measurement": "Fatty Acid Content, TFA", "setting": "[3]; [22]", "value": "619.88 mg/g of dry biomass"},
      {"measurement": "DHA: DPA", "setting": "[3]; [23]", "value": 6.26},
      {"measurement": "Fatty Acid Content, TFA", "setting": "[3]; [23]", "value": "603.79 mg/g of dry biomass"},
      {"measurement": "DHA: DPA", "setting": "[3]; [24]", "value": 5.27},
      {"measurement": "Fatty Acid Content, TFA", "setting": "[3]; [24]", "value": "578.10 mg/g of dry biomass"},
      {"measurement": "DHA: DPA", "setting": "[3]; [25]", "value": 4.54},
      {"measurement": "Fatty Acid Content, TFA", "setting": "[3]; [25]", "value": "540.11 mg/g of dry biomass"},
      {"measurement": "DHA: DPA", "setting": "[4]; [26]", "value": 6.13},
      {"measurement": "Fatty Acid Content, TFA", "setting": "[4]; [26]", "value": "579.14 mg/g of dry biomass"},
      {"measurement": "DHA: DPA", "setting": "[4]; [27]", "value": 5.14},
      {"measurement": "Fatty Acid Content, TFA", "setting": "[4]; [27]", "value": "560.24 mg/g of dry biomass"},
      {"measurement": "DHA: DPA", "setting": "[4]; [28]", "value": 4.58},
      {"measurement": "Fatty Acid Content, TFA", "setting": "[4]; [28]", "value": "641.86 mg/g of dry biomass"},
      {"measurement": "C14:0 reduced (% of TFA, vs control)", "setting": "[4]; [29]", "value": 21.1, "unit": "%"},
      {"measurement": "C16:0 reduced (% of TFA, vs control)", "setting": "[4]; [29]", "value": 27.9, "unit": "%"},
      {"measurement": "cell growth", "setting": "[4]; cerulenin added at any addition time after inoculation", "value": "not inhibited"}
    ]}
  ]
}
